From patent US11285156B2, “Substituted piperazines as KRAS G12C inhibitors” (Amgen Inc., priority 2018, dated 2022)
Read-outs that look alike come from different tables or passages of the source.

Assays:
[1] = tested on: Phosphorylation of ERK1/2 in A549 cells; assay: Phospho-ERK1/2 MSD assay in A549 cells; format: cell-based; conditions: read-out: p-ERK IC50 (2 h, A549; μM), 2 h compound treatment, A549 cells, EGF stimulated
Method in brief: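 Dose-response treatment lasted 2 or 4 h in RPMI 1640/10% FBS at 37 °C. EGF-stimulated (10 ng/mL, 10 min) ERK1/2 phosphorylation was then quantified in cell lysates with a Meso Scale Discovery phospho-ERK1/2 assay.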

[2] = tested on: Phosphorylation of ERK1/2 in MIA PaCa-2 cells; assay: Phospho-ERK1/2 MSD assay in MIA PaCa-2 cells; format: cell-based; conditions: read-out: p-ERK IC50 (2 h, MiaPaCa-2; μM), 2 h compound treatment, MIA PaCa-2 cells, EGF stimulated
Method in brief: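 Phospho-ERK1/2 measured by MSD electrochemiluminescence kit in RIPA lysates of MIA PaCa-2 cells. Cells were treated with compound titrations for 2 or 4 h at 37 °C, 5% CO2, followed by a 10 min pulse of 10 ng/mL EGF.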

[3] = biological target: GDP-bound KRAS protein (aa 1-169), containing both G12C and C118A amino acid substitutions (Homo sapiens (Human), UniProt P01116, C118A/G12C); assay: Coupled nucleotide exchange assay (SOS-mediated nucleotide exchange, AlphaScreen); format: biochemical; conditions: 5 min compound pre-incubation; for IC50: read-out: Coupled exchange IC50 (5 min; μM)
Chain of GDP-bound KRAS protein (aa 1-169), containing both G12C and C118A amino acid substitutions (P01116 other isoform, or with tags, fused parts or gaps G12C/C118A): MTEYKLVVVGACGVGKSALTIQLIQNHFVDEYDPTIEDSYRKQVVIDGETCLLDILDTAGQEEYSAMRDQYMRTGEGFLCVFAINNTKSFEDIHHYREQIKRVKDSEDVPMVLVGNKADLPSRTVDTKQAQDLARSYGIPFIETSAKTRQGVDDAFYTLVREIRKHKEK

| Compound | IC50 ([1]; Homo sapiens, A549, 2 h) | IC50 ([2]; Homo sapiens, MIA PaCa-2, 2 h) | IC50 [3] | IC50 [2] | IC50 [1] | Coupled exchange IC50 (5 min; μM) [3] |
| --- | --- | --- | --- | --- | --- | --- |
| C=CC(=O)N1C[C@H](C)N(c2nc(=O)n(C)c3nc(-c4ccccc4F)c(Cl)cc23)C[C@H]1C [Example 55-59, 6-Chloro-4-[(2S,5R)-2,5-dimethyl-4-prop-2-enoyl-piperazin-1-yl]-7-(2-fluorophenyl)-1-methyl-pyrido[2,3-d]pyrimidin-2-one] | > 7.5 µM | 10 µM | 174 µM | – | – | – |
| C=CC(=O)N1C[C@H](C)N(c2nc(=O)n(-c3c(C)ccnc3C(C)C)c3nc(-c4ccccc4CC)c(Cl)cc23)C[C@H]1C (atropisomer, axis not shown; (M)) [Example 92-55, (M)-6-Chloro-4-[(2S,5R)-2,5-dimethyl-4-prop-2-enoyl-piperazin-1-yl]-7-(2-ethylphenyl)-1-(2-isopropyl-4-methyl-3-pyridyl)pyrido [2,3-d]pyrimidin-2-one] | > 7.5 µM | 0.018 µM | 0.021 µM | – | – | – |
| C=CC(=O)N1C[C@H](C)N(c2nc(=O)n(-c3c(C)ccnc3C(C)C)c3nc(-c4ccccc4C(=O)N(C)C)c(Cl)cc23)C[C@H]1C (atropisomer, axis not shown; (M)) [Example 92-28, (M)-2-[6-Chloro-4-[(2S,5R)-2,5-dimethyl-4-prop-2-enoyl-piperazin-1-yl]-1-(2-isopropyl-4-methyl-3-pyridyl)-2-oxo-pyrido[2,3-d]pyrimidin-7-yl]-N,N-dimethyl-benzamide] | > 7.5 µM | 0.11 µM | 0.123 µM | – | – | – |
| C=CC(=O)N1C[C@H](C)N(c2nc(=O)n(-c3c(C(C)C)ncnc3C3CC3)c3nc(-c4ccccc4C)c(Cl)cc23)C[C@H]1C [Example 108-2, 6-Chloro-1-(4-cyclopropyl-6-isopropyl-pyrimidin-5-yl)-4-[(2S,5R)-2,5-dimethyl-4-prop-2-enoyl-piperazin-1-yl]-7-(o-tolyl)pyrido[2,3-d]pyrimidin-2-one] | > 7.5 µM | – | 0.049 µM | 0.032 µM | – | – |
| C=CC(=O)N1C[C@H](C)N(c2nc(=O)n(-c3c(C)cc([S+](C)[O-])cc3C(C)C)c3nc(-c4ccccc4C)c(Cl)cc23)C[C@H]1C (single isomer, unassigned) [Example 213-3] | – | – | – | 0.074 µM | > 7.5 µM | 0.066 µM |
| C=CC(=O)N1C[C@H](C)N(c2nc(=O)n(-c3c(C)nc(C4CC4)nc3C(C)C)c3nc(-c4ccccc4F)c(Cl)cc23)C[C@H]1C (single isomer, unassigned) [Example 198] | 5.96 µM | 0.136 µM | – | – | – | 0.075 µM |
| C=CC(=O)N1C[C@H](C)N(c2nc(=O)n(-c3c(C(C)C)nc(NC(C)=O)nc3C(C)C)c3nc(-c4ccccc4F)c(Cl)cc23)C[C@H]1C [Example 188, N-[5-[6-Chloro-4-[(2S,5R)-2,5-dimethyl-4-prop-2-enoyl-piperazin-1-yl]-7-(2-fluorophenyl)-2-oxo-pyrido[2,3-d]pyrimidin-1-yl]-4,6-diisopropyl-pyrimidin-2-yl]acetamide] | 4.98 µM | 0.04 µM | – | – | – | 0.038 µM |
| C=CC(=O)N1C[C@H](C)N(c2nc(=O)n(-c3c(N(C)C)ccnc3C(C)C)c3nc(-c4ccccc4C)c(Cl)cc23)C[C@H]1C [Example 103-7, 6-Chloro-1-[4-(dimethylamino)-2-isopropyl-3-pvridyl]-4-[(2S,5R)-2,5-dimethyl-4-prop-2-enoyl-piperazin-1-yl]-7-(o-tolyl)pyrido[2,3-d]pyrimidin-2-one] | 3.75 µM | – | 0.143 µM | 0.128 µM | – | – |
| C=CC(=O)N1C[C@H](C)N(c2nc(=O)n(-c3c(CN4CCCC4)ccnc3C(C)C)c3nc(-c4ccccc4C(C)C)c(Cl)cc23)C[C@H]1C [Example 141-3, 6-Chloro-4-[(2S,5R)-2,5-dimethyl-4-prop-2-enoyl-piperazin-1-yl]-7-(2-isopropylphenyl)-1-[2-isopropyl-4-(pyrrolidin-1-ylmethyl)-3-pyridyl]pyrido[2,3-d]pyrimidin-2-one] | > 7.5 µM | 0.331 µM | 0.197 µM | – | – | – |
| C=CC(=O)N1C[C@H](C)N(c2nc(=O)n(-c3c(C)nc(C(C)C)nc3C(C)C)c3nc(-c4ccccc4F)c(Cl)cc23)C[C@H]1C (single isomer, unassigned) [Example 203] | > 7.5 µM | 0.243 µM | – | – | – | 0.223 µM |
| C=CC(=O)N1C[C@H](C)N(c2nc(=O)n(-c3c(C)ccnc3C(C)C)c3nc(-c4cccc(C)c4F)c(Cl)cc23)C[C@H]1C (atropisomer, axis not shown; (M)) [Example 92-58, (M)-6-Chloro-4-[(2S,5R)-2,5-dimethyl-4-prop-2-enoyl-piperazin-1-yl]-7-(2-fluoro-3-methyl-phenyl)-1-(2-isopropyl-4-methyl-3-pyridyl)pyrido [2,3-d]pyrimidin-2-one] | > 7.5 µM | 0.023 µM | 0.074 µM | – | – | – |
| C=CC(=O)N1C[C@H](C)N(c2nc(=O)n(-c3c(C)ccnc3C(C)C)c3nc(-c4ccccc4C)c(Cl)cc23)C[C@H]1C (atropisomer, axis not shown; (M)) [Example 92-45, (M)-6-Chloro-4-[(2S,5R)-2,5-dimethyl-4-prop-2-enoyl-piperazin-1-yl]-1-(2-isopropyl-4-methyl-3-pyridyl)-7-(o-tolyl)pyrido[2,3-d]pyrimidin-2-one] | > 7.5 µM | 0.023 µM | 0.025 µM | – | – | – |
| C=CC(=O)N1C[C@H](C)N(c2nc(=N)n(-c3ccccc3C(C)C)c3nc(-c4ccccc4F)c(Cl)cc23)C[C@H]1C [Example 185, 1-((2R,5S)-4-(6-Chloro-7-(2-fluorophenyl)-2-imino-1-(2-isopropylphenyl)-1,2-dihydropyrido[2,3-d]pyrimidin-4-yl)-2,5-dimethylpiperazin-1-yl)prop-2-en-1-one] | > 7.5 µM | 0.08 µM | 0.055 µM | – | – | – |
| C=CC(=O)N1C[C@H](C)N(c2nc(=O)n(-c3c(C(C)C)nc(N4CCC4)nc3C(C)C)c3nc(-c4ccccc4F)c(Cl)cc23)C[C@H]1C [Example 107-5, 1-[2-(Azetidin-1-yl)-4,6-diisopropyl-pyrimidin-5-yl]-6-chloro-4-[(2S,5R)-2,5-dimethyl-4-prop-2-enoyl-piperazin-1-yl]-7-(2-fluorophenyl)pyrido [2,3-d]pyrimidin-2-one] | 3.25 µM | 0.3 µM | 0.103 µM | – | – | – |
| C=CC(=O)N1C[C@H](C)N(c2nc(=O)n(-c3c(C)nc(Br)nc3C(C)C)c3nc(-c4ccccc4F)c(Cl)cc23)C[C@H]1C (single isomer, unassigned) [Example 197-2] | > 7.5 µM | 0.091 µM | – | – | – | 0.01 µM |
| C=CC(=O)N1C[C@H](C)N(c2nc(=O)n(-c3c(C)ccnc3C(C)C)c3nc(C4CC4(C)C)c(Cl)cc23)C[C@H]1C (stereo partly drawn) [93-2] | – | – | 0.305 µM | 0.558 µM | > 7.5 µM | – |
| C=CC(=O)N1C[C@H](C)N(c2nc(=O)n(-c3c(C(C)C)ncnc3C3CC3)c3nc(-c4ccccc4C)c(Cl)cc23)C[C@H]1C (single isomer, unassigned) [Example 108-2-2] | – | – | 0.181 µM | 0.148 µM | > 7.5 µM | – |
| C=CC(=O)N1C[C@H](C)N(c2nc(=O)n(-c3c(C)ccnc3C(C)C)c3nc(-c4cc(OC(F)(F)F)ccc4F)c(Cl)cc23)C[C@H]1C (atropisomer, axis not shown; (M)) [Example 124-12, (M)-6-Chloro-4-[(2S,5R)-2,5-dimethyl-4-prop-2-enoyl-piperazin-1-yl]-7-[2-fluoro-5-(trifluoromethoxy)phenyl]-1-(2-isopropyl-4-methyl-3-pyridyl)pyrido[2,3-d]pyrimidin-2-one] | > 7.5 µM | 0.231 µM | 0.313 µM | – | – | – |
| C=CC(=O)N1C[C@H](C)N(c2nc(=O)n(-c3c(C)ccnc3C(C)C)c3nc(-c4cccc(F)c4Cl)c(Cl)cc23)C[C@H]1C (atropisomer, axis not shown; (M)) [Example 92-64, (M)-6-Chloro-7-(2-chloro-3-fluoro-phenyl)-4-[(2S,5R)-2,5-dimethyl-4-prop-2-enoyl-piperazin-1-yl]-1-(2-isopropyl-4-methyl-3-pyridyl)pyrido [2,3-d]pyrimidin-2-one] | > 7.5 µM | 0.044 µM | 0.039 µM | – | – | – |
| C=CC(=O)N1C[C@H](C)N(c2nc(=O)n(-c3c(C)ccnc3C(C)C)c3nc(-c4cc(O)cc5ccccc45)c(Cl)cc23)C[C@H]1C (atropisomer, axis not shown; (M)) [Example 132-1, (M)-6-Chloro-4-[(2S,5R)-2,5-dimethyl-4-prop-2-enoyl-piperazin-1-yl]-7-(3-hydroxy-1-naphthyl)-1-(2-isopropyl-4-methyl-3-pyridyl)pyrido[2,3-d]pyrimidin-2-one] | – | – | 0.053 µM | 0.46 µM | > 7.5 µM | – |
| C=CC(=O)N1C[C@H](C)N(c2nc(=O)n(-c3c(C)ccnc3C(C)C)c3nc(-c4ccccc4Cl)c(Cl)cc23)C[C@H]1C (atropisomer, axis not shown; (M)) [Example 92-51, (M)-6-Chloro-7-(2-chlorophenyl)-4-[(2S,5R)-2,5-dimethyl-4-prop-2-enoyl-piperazin-1-yl]-1-(2-isopropyl-4-methyl-3-pyridyl)pyrido [2,3-d]pyrimidin-2-one] | > 7.5 µM | 0.03 µM | 0.033 µM | – | – | – |
